Laboratory results published in patent publication EP4389156A1, “RA[…] LIGAND COMPOUNDS AND PRECURSORS THEREOF” (Technische Universität München, priority 2022, dated 2024).
Where “and” joins values, the source holds several entries; their conditions need not be identical. Identical values can stand only once.

Tests used:
[1] = Lipophilicity (logD7.4), shake-flask method; assay type: physicochemical; settings: n-octanol/PBS (pH 7.4), n = 8, mean ± SD
Method: The lipophilicity of ^99mTc-labeled PSMA ligands, expressed as distribution coefficient (logD7.4), was determined using the shake-flask method. A solution of approximately 1 MBq of radioligand in 1 mL of a 1:1 mixture of PBS (pH = 7.4) and n-octanol (n = 8) was vortexed vigorously for 3 min. After centrifugation at 9000 rpm for 5 min aliquots of both phases (200 µL n-octanol, 50 µL PBS) were collected and the activity was quantified in a γ-counter. logD7.4 values were calculated as decadic logarithm of the activity concentration ratio between the n-octanol phase and the aqueous phase. Data are given as mean ± standard deviation (SD). Binding to human plasma was determined by incubation of radioligands in human plasma (2 nM concentration, 37 °C for 30 min) and subsequent ultrafiltration (250 µL aliquots, 3200 rpm, 40 min) in Centrifree® ultrafiltration devices (Merck Millipore, Cork, Ireland). The fraction bound to human plasma proteins was calculated as the ratio of unfiltered activity and the total activity in the ultrafiltration device. Measurements were performed in three independent experiments, each with two replicates (n = 6, data are given as mean ± SD). All values were corrected for non-specific binding (control experiments in PBS).

[2] = target: T1, human serum albumin (HSA) (Homo sapiens, UniProt P02768); experiment: HSA binding by high performance affinity chromatography (HPAC); assay type: in vitro ADME; settings: uncomplexed compounds, n = 1
T1 construct: purchased Daicel, Tokyo, Japan H13H-2433
Method: HSA binding of the uncomplexed PSMA ligands was determined according to a previously published procedure via HPLC (Valko, K.; Nunhuck, S.; Bevan, C.; Abraham, M. H.; Reynolds, D. P., Fast gradient HPLC method to determine compounds binding to human serum albumin. Relationships with octanol/water and immobilized artificial membrane lipophilicity. J Pharm Sci. 2003, 92, 2236-2248). A Chiralpak HSA column (50 × 3 mm, 5 µm, H13H-2433, Daicel, Tokyo, Japan) was used at a constant flow rate of 0.5 mL/min at rt. Mobile phase A was a freshly prepared 50 mM aqueous solution of NH4OAc (pH 6.9) and mobile phase B was isopropanol (HPLC grade, VWR). The applied gradient for all experiments was 100% A (0 to 3 min), followed by 80% A (3 to 40 min). Prior to the experiment, the column was calibrated using nine reference substances with a HSA binding, known from literature, in the range of 13 to 99% (Valko, K.; Nunhuck, S.; Bevan, C.; Abraham, M. H.; Reynolds, D. P., J Pharm Sci. 2003, 92, 2236-2248; Yamazaki, K.; Kanaoka, M., Computational prediction of the plasma protein-binding percent of diverse pharmaceutical compounds. J Pharm Sci. 2004, 93, 1480-1494). All substances, including the examined PSMA ligands, were dissolved in a 1:1 mixture (v/v) of isopropanol and a 50 mM aqueous solution of NH4OAc (pH 6.9) with a final concentration of 0.5 mg/mL. Non-linear regression was established with the OriginPro 2016G software (Northampton, United States).

PSMA = target: T2, PSMA (Homo sapiens, UniProt Q04609); experiment: Competitive binding study, inverse IC50 (99mTc-radioligand versus increasing IBA-KuE); settings: inverse IC50: IBA-KuE competes against 99mTc-radioligand (0.2 nM/well); higher values = higher affinity; 1 h, 4°C, n = 3, mean ± SD; read-out: IC50, inv.
T2 construct: endogenous in cells; printed for the internalization assay of the same paragraph
Method: (§1) Competitive binding studies were carried out in analogy to a previously reported procedure. As a modification the non-radiolabeled standard competitor (((S)-1-carboxy-5-(4-(iodo)benzamido)pentyl)carbamoyl)-L-glutamic acid (IBA-KuE) was applied in increasing concentrations (10^-5 - 10^-11 M/well, n = 3 each) whereas the novel PSMA-binding compounds of interest were applied as ^99mTc-labeled radioligands (0.2 nM/well). In this inversed experimental approach, higher values correspond to higher affinities and are referred to as inverse IC50. Poly-L-lysine coated 24-well plates were used (n = 3). Data are given as mean ± SD. To determine the cellular uptake of the ^99mTc-labeled PSMA ligands into LNCaP cells by means of PSMA-mediated internalization at 1 h, a previously reported protocol was applied with assay concentrations of 1.0 nM and 0.2 nM for ^99mTc-labeled PSMA ligands and the reference compound [^125I]IBA-KuE, respectively. Data are corrected for non-specific binding and normalized to the specific internalization of the reference. Results are given as mean ± SD.

LNCaP cells = experiment: PSMA-mediated internalization into LNCaP cells; assay type: cell-based; settings: 1 h, 37°C, n = 3, as percentage of reference [125I]IBA-KuE, mean ± SD
Method: as §1

[3] = test system: LNCaP tumor-bearing CB17-SCID mice; experiment: Biodistribution study in LNCaP tumor-bearing mice; assay type: in vivo; settings: 6 h p.i.; for uptake in % iD/g adrenals / uptake in % iD/g blood / uptake in % iD/g bone / uptake in % iD/g heart / uptake in % iD/g intestine / uptake in % iD/g kidney / uptake in % iD/g liver / uptake in % iD/g lung / uptake in % iD/g muscle / uptake in % iD/g pancreas / uptake in % iD/g parotid gland / uptake in % iD/g spleen / uptake in % iD/g stomach / uptake in % iD/g submandibular gland / uptake in % iD/g tumor: male LNCaP tumor-bearing CB17-SCID mice, mean; for uptake in % iD/g adrenals / uptake in % iD/g blood / uptake in % iD/g bone / uptake in % iD/g heart / uptake in % iD/g intestine / uptake in % iD/g kidney / uptake in % iD/g liver / uptake in % iD/g lung / uptake in % iD/g muscle / uptake in % iD/g pancreas / uptake in % iD/g parotid gland / uptake in % iD/g spleen / uptake in % iD/g stomach / uptake in % iD/g submandibular gland / uptake in % iD/g tumor / tumor-to-background ratio adrenals / tumor-to-background ratio blood / tumor-to-background ratio bone / tumor-to-background ratio heart / tumor-to-background ratio intestine / tumor-to-background ratio kidney / tumor-to-background ratio liver / tumor-to-background ratio lung / tumor-to-background ratio muscle / tumor-to-background ratio pancreas / tumor-to-background ratio parotid gland / tumor-to-background ratio spleen / tumor-to-background ratio stomach / tumor-to-background ratio submandibular gland: n = 4-5; for tumor-to-background ratio adrenals / tumor-to-background ratio blood / tumor-to-background ratio bone / tumor-to-background ratio heart / tumor-to-background ratio intestine / tumor-to-background ratio kidney / tumor-to-background ratio liver / tumor-to-background ratio lung / tumor-to-background ratio muscle / tumor-to-background ratio pancreas / tumor-to-background ratio parotid gland / tumor-to-background ratio spleen / tumor-to-background ratio stomach / tumor-to-background ratio submandibular gland: mean of ratios of individual animals; for Blood activity levels increased, as compared to [^99mTc]Tc-N4-PSMA-12: relative to [^99mTc]Tc-N4-PSMA-12
Method: All animal experiments were conducted in accordance with general animal welfare regulations in Germany (German animal protection act, in the edition of the announcement, dated May 18th, 2006, as amended by Article 280 of June 19th 2020, approval no. ROB-55.2-1-2532.Vet_02-18-109 by the General Administration of Upper Bavaria) and the institutional guidelines for the care and use of animals. Male CB17-SCID mice were purchased from Charles River (Sulzfeld, Germany) and arrived at the in-house animal facility to acclimate at least 1 week before the start of the experiment. Tumor xenografts were established by subcutaneous inoculation of LNCaP cells (approx. 2 × 10^7 cells in 200 µL of a 1:1 mixture of Cultrex BME (R&D Systems, Minneapolis, United States) and DMEM/Ham's F-12) onto the right shoulder of 6-8 weeks old male CB17-SCID mice. The animals were used for experiments when tumors had grown to a size of 5-10 mm in diameter. Criteria for the exclusion of animals from the experiment were weight loss higher than 20%, tumor size above 1.5 cm^3, ulceration of the tumor, respiratory distress or change of behavior. […] Neither randomisation nor blinding was applied in the allocation of the experiments. Quarterly health monitoring was performed according to the FELASA recommendations.
Biodistribution Studies. The ^99mTc-labeled radioligands (2.7 ± 0.7 MBq, 82 ± 20 pmol) were injected into a lateral tail vein of LNCaP-tumor bearing mice (n = 4-5) under isoflurane anesthesia. Animals were sacrificed at 6 h post injection (p.i.) by carbon dioxide inhalation and blood withdrawal via cardiac puncture. Blood and tissues of interest were collected, weighed and the activity measured in a γ-counter. Radioligand uptake is given in percent of the injected dose per gram of tissue (% ID/g) and results are presented as mean ± SD.
In line with the above, the biodistribution study of [^99mTc]Tc-N4-PSMA-21 was carried out with n = 5 animals ("data set I"). […] Kidney uptake of mouse #3 (36.17 %ID/g) exceeded the value obtained from the other four animals (4.58 ± 1.44 %ID/g, mean ± SD) 7.9-fold or by more than 20 standard deviations. In addition, tumor uptake of mouse #3 (21.92 %ID/g) exceeded the value obtained from the other four animals (11.02 ± 2.22 %ID/g, mean ± SD) 2.0-fold or by more than 4 standard deviations Due to the uncertainty whether these huge deviations arise from an experimental error or might be related to strongly deviating metabolic processes e.g. abnormal kidney function in mouse #3, the study primarily presents and discusses the data set based on the other four animals (n = 4, "data set II"). A thorough evaluation and comparison was, however, also carried out including mouse #3.

[4] = single outlier animal (mouse #3), excluded from data set II

T2 sequence (Q04609 whole entry): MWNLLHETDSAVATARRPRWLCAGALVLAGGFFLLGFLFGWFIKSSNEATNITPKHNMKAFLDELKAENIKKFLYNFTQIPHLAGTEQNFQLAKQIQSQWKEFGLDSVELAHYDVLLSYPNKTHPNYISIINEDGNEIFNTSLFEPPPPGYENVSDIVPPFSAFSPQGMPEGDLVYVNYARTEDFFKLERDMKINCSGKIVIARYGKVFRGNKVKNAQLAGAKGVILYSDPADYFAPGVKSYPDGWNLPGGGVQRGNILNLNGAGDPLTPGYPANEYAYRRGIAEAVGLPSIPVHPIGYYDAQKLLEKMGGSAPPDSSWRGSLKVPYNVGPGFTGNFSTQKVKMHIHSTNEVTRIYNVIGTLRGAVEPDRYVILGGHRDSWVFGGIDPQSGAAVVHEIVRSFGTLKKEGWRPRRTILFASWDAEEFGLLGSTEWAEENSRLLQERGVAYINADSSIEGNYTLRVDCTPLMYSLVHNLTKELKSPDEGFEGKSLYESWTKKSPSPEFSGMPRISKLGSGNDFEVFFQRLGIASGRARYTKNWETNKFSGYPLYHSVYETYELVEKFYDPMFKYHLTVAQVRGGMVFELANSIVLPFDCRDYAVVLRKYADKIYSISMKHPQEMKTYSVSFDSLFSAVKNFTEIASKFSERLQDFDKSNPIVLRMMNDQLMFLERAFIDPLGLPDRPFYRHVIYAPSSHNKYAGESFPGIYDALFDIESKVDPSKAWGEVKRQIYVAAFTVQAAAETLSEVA
T1 sequence (P02768 25-609): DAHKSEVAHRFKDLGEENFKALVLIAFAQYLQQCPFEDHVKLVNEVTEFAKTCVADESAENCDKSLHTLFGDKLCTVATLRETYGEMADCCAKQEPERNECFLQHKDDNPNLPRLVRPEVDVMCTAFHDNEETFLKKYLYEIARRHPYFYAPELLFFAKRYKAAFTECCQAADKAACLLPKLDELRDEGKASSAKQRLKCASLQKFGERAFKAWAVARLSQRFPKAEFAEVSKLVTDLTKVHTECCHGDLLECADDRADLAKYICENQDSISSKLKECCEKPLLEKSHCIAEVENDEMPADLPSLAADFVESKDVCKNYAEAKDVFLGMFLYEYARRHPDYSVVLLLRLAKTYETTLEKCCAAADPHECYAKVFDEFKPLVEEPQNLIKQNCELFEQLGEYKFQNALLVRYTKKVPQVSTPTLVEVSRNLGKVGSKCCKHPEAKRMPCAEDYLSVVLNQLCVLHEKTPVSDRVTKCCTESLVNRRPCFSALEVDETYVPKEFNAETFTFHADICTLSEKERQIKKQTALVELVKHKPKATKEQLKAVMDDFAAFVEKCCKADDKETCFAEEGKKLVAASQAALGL

Row | SMILES | logD7.4 [1] | HSA-binding (HPAC) (%) [2] | inverse IC50 (PSMA) | internalization (% IBA-KuE) (LNCaP cells) | uptake in % iD/g adrenals [3] | uptake in % iD/g blood [3] | uptake in % iD/g bone [3] | uptake in % iD/g heart [3] | uptake in % iD/g intestine [3] | uptake in % iD/g kidney [3] | uptake in % iD/g liver [3] | uptake in % iD/g lung [3] | uptake in % iD/g muscle [3] | uptake in % iD/g pancreas [3] | uptake in % iD/g parotid gland [3] | uptake in % iD/g spleen [3] | uptake in % iD/g stomach [3] | uptake in % iD/g submandibular gland [3] | uptake in % iD/g tumor [3] | tumor-to-background ratio adrenals [3] | other results
1 | CC(C)(C)[Si](O)(c1ccc(C(=O)NC[C@@H](NC(=O)[C@@H](Cc2ccccc2)NC(=O)C(CNCCN)CNCCN)C(=O)N[C@H](CCCCNC(=O)CCC(=O)NCCC[C@@H](NC(=O)CC[C@H](NC(=O)N[C@@H](CCC(=O)O)C(=O)O)C(=O)O)C(=O)O)C(=O)O)cc1)C(C)(C)C.[O]=[99Tc+]=[O] [[^99mTc]Tc-N4-PSMA-13] | -2.78 ± 0.05 | 89.9% | 9.98 ± 0.99 nM | 164 ± 15% | 0.5170 % ID/g | 0.0320 % ID/g | 0.0862 % ID/g | 0.0456 % ID/g | 0.2661 % ID/g | 6.6 ± 4.8 % ID/g and 6.5974 % ID/g | 0.2618 % ID/g | 0.1108 % ID/g | 0.0127 % ID/g | 0.0270 % ID/g | 0.1056 % ID/g | 0.6314 % ID/g | 0.1348 % ID/g | 0.3069 % ID/g | 12.5347 % ID/g | 24.50 | tumor-to-background ratio blood [3]: 409.29; tumor-to-background ratio bone [3]: 142.94; tumor-to-background ratio heart [3]: 276.38; tumor-to-background ratio intestine [3]: 64.62; tumor-to-background ratio kidney [3]: 2.45; tumor-to-background ratio liver [3]: 50.17; tumor-to-background ratio lung [3]: 113.30; tumor-to-background ratio muscle [3]: 1013.12; tumor-to-background ratio pancreas [3]: 496.73; tumor-to-background ratio parotid gland [3]: 119.35; tumor-to-background ratio spleen [3]: 20.57; tumor-to-background ratio stomach [3]: 101.82; tumor-to-background ratio submandibular gland [3]: 41.60; Blood activity levels increased, as compared to [^99mTc]Tc-N4-PSMA-12 [3]: 1.6 fold
2 | CC(C)(C)[Si](O)(c1ccc(C(=O)NC[C@@H](NC(=O)[C@@H](Cc2ccc(N)cc2)NC(=O)C(CNCCN)CNCCN)C(=O)N[C@H](CCCCNC(=O)CCC(=O)NCCC[C@@H](NC(=O)CC[C@H](NC(=O)N[C@@H](CCC(=O)O)C(=O)O)C(=O)O)C(=O)O)C(=O)O)cc1)C(C)(C)C.[O]=[99Tc+]=[O] [[^99mTc]Tc-N4-PSMA-21] | -3.13 ± 0.05 | 57.3% | 11.1 ± 1.42 nM | 180 ± 4% | 0.5759 % ID/g | 0.1074 % ID/g | 0.0828 % ID/g | 0.0568 % ID/g | 1.1034 % ID/g | 4.58 ± 1.44 % ID/g and 4.6 ± 1.4 % ID/g and 4.5811 % ID/g | 0.5752 % ID/g | 0.1250 % ID/g | 0.0153 % ID/g | 0.0335 % ID/g | 0.1105 % ID/g | 1.3064 % ID/g | 0.1458 % ID/g | 0.3009 % ID/g | 11.02 ± 2.22 % ID/g and 11.0155 % ID/g | 19.85 | tumor-to-background ratio blood [3]: 125.55; tumor-to-background ratio bone [3]: 207.38; tumor-to-background ratio heart [3]: 201.50; tumor-to-background ratio intestine [3]: 52.29; tumor-to-background ratio kidney [3]: 2.57; tumor-to-background ratio liver [3]: 23.75; tumor-to-background ratio lung [3]: 99.35; tumor-to-background ratio muscle [3]: 736.44; tumor-to-background ratio pancreas [3]: 350.74; tumor-to-background ratio parotid gland [3]: 101.59; tumor-to-background ratio spleen [3]: 10.32; tumor-to-background ratio stomach [3]: 114.49; tumor-to-background ratio submandibular gland [3]: 50.80; Blood activity levels increased, as compared to [^99mTc]Tc-N4-PSMA-12 [3]: 5.4 fold; Kidney uptake of mouse #3 [3, 4]: 36.17 %ID/g; tumor uptake of mouse #3 [3, 4]: 21.92 %ID/g
